Measured values as given in PubChem BioAssay AID1963827 (Molecular Pharmacology Branch, DTP, NCI, 2024).
“And” between values parts separate entries of the source, which are not always exact repeats. Equal values may be shown once. Each block holds one molecule with its values, some of them ahead of it.

System: 994946-033-R-J1-PDC complex spheroid viability
Experiment: Anticancer human tumor 994946-033-R-J1-PDC patient-derived melanoma cell line growth inhibition [POLQ]
Conditions: for viability, T/C: stronger effect = lower value
Description: Multicellular complex tumor spheroid response to Polymerase (POL) inhibitors (novobiocin, ART-558, RP6685) in combination with a variety of drugs and investigational agents in selected tumor cell lines
The POL inhibitors (novobiocin, ART-558, and RP6685) were evaluated both individually and in combination with standard of care and investigational anticancer small molecules within a complex spheroid model of solid tumors. . Complex spheroids include a stromal component modeled by human endothelial cells (HUVEC) and fibroblasts modeled by human mesenchymal stem cells (MSCs). The concentration ranges selected for each drug and investigational agent were based upon clinically achievable concentrations if the clinical Cmax of the agent was known.
Compounds. The drugs and investigational agents: novobiocin (NSC847541), ART-558 (NSC835418), RP-6685 (NSC848927), peposertib (NSC802822), ceralasertib (NSC780249), elimusertib (NSC800525), camonsertib (NSC841442), AZD-1390 (NSC803789), olaparib (NSC753686), talazoparib (NSC767125), rucaparib (NSC756644), sotorasib (NSC818433), MRTX-1133 (NSC836407), SN-38 (NSC673596), topotecan (NSC609699), epotoside (NSC141540), doxorubicin (NSC123127), gemcitabine (NSC613327), 5-fluorouracil (NSC19893), paclitaxel (NSC125973), vemurafenib (NSC761431), MSA-2 (NSC828583), SN-011 (NSC837082), adavosertib (NSC754352), prexasertib (NSC758257), carboplatin (NSC241240) and oxaliplatin (NSC266046), were obtained from the National Cancer Institute (NCI) Developmental Therapeutics Program Chemical Repository (21). The FDA-approved anticancer drug set is available from the Developmental Therapeutics Program at https://dtp.cancer.gov/organization/dscb/obtaining/. […] The stock solutions were prepared in dimethyl sulfoxide (DMSO, Sigma-Aldrich, St. Louis, MO, cat. D2650), except for the platinum compounds which were prepared in saline (Quality Biological, Gaithersburg, MD, cat. 114-055-101), at 800-fold the tested concentration and stored at -70 degrees C prior to their use. All drugs and investigational agents were tested over a range starting from a high concentration at or near the clinical Cmax and decreasing in half-log increments. If the clinical Cmax for an agent had not been determined, the highest concentration tested was 10 microM, except for SN-38, which was tested at a high concentration of 1 microM.
Cell Culture. All cells were maintained in an incubator at 37 degrees C and 5% CO2 with 95% humidity. The PDC lines were cultured according to standard operating procedures established by the NCI PDMR (https://pdmr.cancer.gov). Table 3 of the manuscript, lists the cell lines along with the number of the three cell types plated to form the mct-spheroids and media for tumor cell growth. After thawing, all PDC lines, except 997537-175-T-J1-PDC and 415267-285-R-J2-PDC, were cultured in Matrigel-coated flasks prepared with a working solution of 1X Ham's F-12 nutrient mix, without supplementation (Thermo Fisher Scientific, cat. 11765054), 100 U/mL penicillin-streptomycin (Thermo Fisher Scientific, cat. 15140122), and 2.5% Matrigel (Corning Inc., Corning, NY, cat. 354248) for the first three passages. The two PDC lines 997537-175-T-J1-PDC and 415267-285-R-J2-PDC were cultured on uncoated flasks. The 857933-349-R-J2-PDC line was cultured in 6C/Colon 1B media containing advanced DMEM/F-12 (Thermo Fisher Scientific, cat. 12634028), 10 mM HEPES (Thermo Fisher Scientific, cat. 15630080), 1X GlutaMAX supplement (Thermo Fisher Scientific, cat. 35050061), 0.1 mg/mL primocin (InvivoGen, San Diego, CA, cat. ant-pm-2), 10% defined fetal bovine serum, heat inactivated (HyClone Laboratories Inc., Logan, UT, cat. SH30070.03HI), 50% L-WRN conditioned media (ATCC, cat. CRL-3276), 1.25 mM N-Acetyl-L-cysteine (Sigma-Aldrich, cat. A9165), 10 mM nicotinamide (Sigma-Aldrich, cat. N0636), 1X B-27 supplement (Thermo Fisher Scientific, cat. 17504044), 1X N-2 supplement (Thermo Fisher Scientific, cat. […]
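Note: spheroids exposed to drugs for 7 days.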
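Throughout, for viability, T/C: 100% = DMSO vehicle treated spheroids.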

Structure (SMILES): O=C(Nc1ccc(O)c(NS(=O)(=O)c2ccc(F)cc2)c1)c1ccc(-c2ccccc2)cc1 + Cc1cccc(N(C)C(=O)C2C(O)CCN2c2nc(C)cc(C(F)(F)F)c2C#N)c1
IC50 (curve of first compound, second compound 0.0316 µM): 9.36 µM
IC50 (curve of first compound, second compound 0.1 µM): > 10 µM
IC50 (curve of first compound, second compound 0.316 µM): 6.51 µM
IC50 (curve of first compound, second compound 1 µM): 5.59 µM
IC50 (curve of first compound, second compound 3.16 µM): 5.89 µM
IC50 (curve of first compound, second compound 10 µM): 2.98 µM
viability, T/C (second compound 0.0316 µM, first compound 0.0316 µM): 90.8%
viability, T/C (second compound 0.0316 µM, first compound 0.1 µM): 98%
viability, T/C (second compound 0.0316 µM, first compound 0.316 µM): 112%
viability, T/C (second compound 0.0316 µM, first compound 1 µM): 126%
viability, T/C (second compound 0.0316 µM, first compound 3.16 µM): 92.9%
viability, T/C (second compound 0.0316 µM, first compound 10 µM): 47.3%
viability, T/C (second compound 0.1 µM, first compound 0.0316 µM): 108%
viability, T/C (second compound 0.1 µM, first compound 0.1 µM): 87.9%
viability, T/C (second compound 0.1 µM, first compound 0.316 µM): 118%
viability, T/C (second compound 0.1 µM, first compound 1 µM): 65%
viability, T/C (second compound 0.1 µM, first compound 3.16 µM): 61.3%
viability, T/C (second compound 0.1 µM, first compound 10 µM): 39.4%
viability, T/C (second compound 0.316 µM, first compound 0.0316 µM): 84.1%
viability, T/C (second compound 0.316 µM, first compound 0.1 µM): 109%
viability, T/C (second compound 0.316 µM, first compound 0.316 µM): 91.4%
viability, T/C (second compound 0.316 µM, first compound 1 µM): 121%
viability, T/C (second compound 0.316 µM, first compound 3.16 µM): 74.8%
viability, T/C (second compound 0.316 µM, first compound 10 µM): 35.2%
viability, T/C (second compound 1 µM, first compound 0.0316 µM): 87.7%
viability, T/C (second compound 1 µM, first compound 0.1 µM): 95.4%
viability, T/C (second compound 1 µM, first compound 0.316 µM): 81.2%
viability, T/C (second compound 1 µM, first compound 1 µM): 105%
viability, T/C (second compound 1 µM, first compound 3.16 µM): 61.9%
viability, T/C (second compound 1 µM, first compound 10 µM): 37.9%
viability, T/C (second compound 3.16 µM, first compound 0.0316 µM): 73.5%
viability, T/C (second compound 3.16 µM, first compound 0.1 µM): 59.4%
viability, T/C (second compound 3.16 µM, first compound 0.316 µM): 90.2%
viability, T/C (second compound 3.16 µM, first compound 1 µM): 73%
viability, T/C (second compound 3.16 µM, first compound 3.16 µM): 81.3%
viability, T/C (second compound 3.16 µM, first compound 10 µM): 28.3%
viability, T/C (second compound 10 µM, first compound 0.0316 µM): 85.5%
viability, T/C (second compound 10 µM, first compound 0.1 µM): 81.3%
viability, T/C (second compound 10 µM, first compound 0.316 µM): 95.8%
viability, T/C (second compound 10 µM, first compound 1 µM): 81.3%
viability, T/C (second compound 10 µM, first compound 3.16 µM): 48.4%
viability, T/C (second compound 10 µM, first compound 10 µM): 26.8%

Structure (SMILES): CC1COCCN1c1cc(C2(S(C)(=N)=O)CC2)nc(-c2ccnc3[nH]ccc23)n1 (configuration not stated)
viability, T/C (compound 0.0316 µM): 106% and 105% and 113%
viability, T/C (compound 0.1 µM): 112% and 97.5% and 98.7%
viability, T/C (compound 0.316 µM): 90.5% and 86.8% and 93.9%
viability, T/C (compound 1 µM): 70.6% and 57.9% and 68.7%
viability, T/C (compound 3.16 µM): 42% and 44.5% and 52%
viability, T/C (compound 10 µM): 56.6% and 52.9% and 32.3%
IC50 (curve of compound): 8.06 µM and 2.89 µM and 3.41 µM

Structure (SMILES): CC(=O)O[C@H]1C(=O)[C@@]2(C)[C@H]([C@H](OC(=O)c3ccccc3)[C@]3(O)C[C@H](OC(=O)[C@H](O)[C@@H](NC(=O)c4ccccc4)c4ccccc4)C(C)=C1C3(C)C)[C@]1(OC(C)=O)CO[C@@H]1C[C@@H]2O
viability, T/C (compound 0.00949 µM): 24.4% and 24.8% and 18.7%
viability, T/C (compound 0.03 µM): 21.9% and 23.1% and 18.1%
viability, T/C (compound 0.0949 µM): 18.5% and 17.9% (2×)
viability, T/C (compound 0.3 µM): 17.7% and 11.9% and 15.6%
viability, T/C (compound 0.949 µM): 18.8% and 15.4% and 12.7%
viability, T/C (compound 3 µM): 11.4% and 13% and 9.5%
IC50 (curve of compound): < 0.00949 µM

Structure (SMILES): COc1cc(C2c3cc4c(cc3C(OC3OC5COC(C)OC5C(O)C3O)C3COC(=O)C23)OCO4)cc(OC)c1O (configuration not stated)
viability, T/C (compound 0.0316 µM): 92.1% and 89.8% and 87.4%
viability, T/C (compound 0.1 µM): 56.1% and 74.7% and 56.7%
viability, T/C (compound 0.316 µM): 42.6% and 37.3% and 54.9%
viability, T/C (compound 1 µM): 36.4% and 29.4% and 38.1%
viability, T/C (compound 3.16 µM): 15% and 14.1% and 14.8%
viability, T/C (compound 10 µM): 5.65% and 9.75% and 6.75%
IC50 (curve of compound): 0.212 µM and 0.24 µM and 0.313 µM

IC50 (compound alone, run of 11/06/2023): > 10 µM
Structure (SMILES): Nc1ccc(C#CCN(C(=O)Cc2ncc(C(F)(F)F)cc2C(F)(F)F)c2ccc(F)cc2)nn1
viability, T/C (compound 10 µM): 94.6% [middle of 13 runs]

Structure (SMILES): CNCc1ccc(-c2[nH]c3cc(F)cc4c3c2CCNC4=O)cc1
viability, T/C (compound 0.0316 µM): 90.6% and 92.2% and 105%
viability, T/C (compound 0.1 µM): 111% and 79.6% and 87%
viability, T/C (compound 0.316 µM): 112% and 90% and 90.3%
viability, T/C (compound 1 µM): 107% and 83.3% and 103%
viability, T/C (compound 3.16 µM): 110% and 98.3% and 105%
viability, T/C (compound 10 µM): 93.4% and 76.8% and 66.9%
IC50 (curve of compound): > 10 µM
